Laboratory results as given in paper PMC4199987 (Drug Design, Development and Therapy, 2014).
Read-outs that look alike come from different tables or passages of the source. Marks after values point to notes of the source that are not given here.

Assays:
[1] = cited from earlier work
active GLP-1 = experiment: Postprandial plasma active GLP-1 in healthy subjects; assay type: in vivo, human
serum glucose = experiment: Postprandial serum glucose in healthy subjects; assay type: in vivo, human
whole blood insulin = experiment: Postprandial whole blood insulin in healthy subjects; assay type: in vivo, human
[2] = Safety and tolerability assessment; assay type: in vivo, human
human DPP-VIII = details: selectivity; cited from earlier work
human DPP-IX = details: selectivity; cited from earlier work
human DPP-I = details: selectivity; cited from earlier work
human DPP-II = details: selectivity; cited from earlier work
[3] = system: fibroblast activation protein-alpha (FAPα); details: selectivity; cited from earlier work
[4] = system: antiphagocytic protein 1 (APP1); details: selectivity; cited from earlier work
prolidase = details: selectivity; cited from earlier work
granzyme B = details: selectivity; cited from earlier work
[5] = system: cytochrome P450 (CYP) 3A4; details: in vitro studies; cited from earlier work
CYP1A2 = details: in vitro studies; cited from earlier work
CYP2C9 = details: in vitro studies; cited from earlier work
CYP2C19 = details: in vitro studies; cited from earlier work
CYP2D6 = details: in vitro studies; cited from earlier work
CYP3A4 [6] = details: in vitro studies; cited from earlier work
CYP3A4 [7] = details: in vitro studies; cited from earlier work; remark: listed apart in the source
[8] = dose range 1.25–60 mg, healthy volunteers; cited from earlier work
high fat diet-fed mice = details: cited from earlier work
db/db mice = details: young leptin receptor-deficient db/db mice; cited from earlier work
[9] = system: streptozotocin-induced diabetic mice; details: cited from earlier work
[10] = baseline corrected, day 1, 5 mg
[11] = baseline corrected, day 1, 10 mg
[12] = baseline corrected, day 1, 20 mg
[13] = baseline corrected, day 10, 5 mg
[14] = baseline corrected, day 10, 10 mg
[15] = baseline corrected, day 10, 20 mg
[16] = baseline uncorrected, day 1, 5 mg
[17] = baseline uncorrected, day 1, 10 mg
[18] = baseline uncorrected, day 1, 20 mg
[19] = baseline uncorrected, day 10, 5 mg
[20] = baseline uncorrected, day 10, 10 mg
[21] = baseline uncorrected, day 10, 20 mg
[22] = 5 mg (N=8), judged to be related to the study drug
[23] = 5 mg once daily for 10 days (N=8)
[24] = 10 mg (N=8), judged to be related to the study drug
[25] = 10 mg once daily for 10 days (N=8)
[26] = 20 mg (N=8), judged to be related to the study drug
[27] = 20 mg once daily for 10 days (N=8)

Structure (SMILES): CC#CCn1c(N2CCC[C@@H](N)C2)nc2c1c(=O)n(Cc1nc(C)c3ccccc3n1)c(=O)n2C [linagliptin]
- terminal elimination half-life [1]: 120 h

Structure (SMILES): CC(C)(C)OC[C@@H]1C(=O)NCCN1C(=O)C[C@H](N)Cc1cc(F)c(F)cc1F [Evogliptin]
- Average AUEtotal (CV%) GLP-1 (active GLP-1; [10]): 25.7 (48.3) pM·h
- Average AUEtotal (CV%) GLP-1 (active GLP-1; [11]): 24.9 (46.0) pM·h
- Average AUEtotal (CV%) GLP-1 (active GLP-1; [12]): 45.3 (73.8) pM·h
- Average AUEtotal (CV%) GLP-1 (active GLP-1; [13]): 25.4 (56.7) pM·h
- Average AUEtotal (CV%) GLP-1 (active GLP-1; [14]): 22.2 (41.0) pM·h
- Average AUEtotal (CV%) GLP-1 (active GLP-1; [15]): 35.5 (67.3) pM·h
- Average AUEtotal (CV%) GLP-1 (active GLP-1; [16]): 55.8 (49.6) pM·h
- Average AUEtotal (CV%) GLP-1 (active GLP-1; [17]): 55.0 (35.9) pM·h
- Average AUEtotal (CV%) GLP-1 (active GLP-1; [18]): 82.8 (55.3) pM·h
- Average AUEtotal (CV%) GLP-1 (active GLP-1; [19]): 75.7 (111.2) pM·h
- Average AUEtotal (CV%) GLP-1 (active GLP-1; [20]): 52.6 (25.0) pM·h
- Average AUEtotal (CV%) GLP-1 (active GLP-1; [21]): 72.8 (37.0) pM·h
- reduction of baseline corrected AUEtotal of glucose compared to placebo (serum glucose; 5 mg): 20%
- reduction of baseline corrected AUEtotal of glucose compared to placebo (serum glucose; 10 mg): 25%
- reduction of baseline corrected AUEtotal of glucose compared to placebo (serum glucose; 20 mg): 35%
- effect on fasting glucose levels (serum glucose; 5-20 mg): did not affect the fasting glucose levels
- Average AUEtotal (CV%) Glucose (serum glucose; [10]): 264.1 (36.1) h·mg/dL
- Average AUEtotal (CV%) Glucose (serum glucose; [11]): 234.9 (24.9) h·mg/dL
- Average AUEtotal (CV%) Glucose (serum glucose; [12]): 229.7 (37.6) h·mg/dL
- Average AUEtotal (CV%) Glucose (serum glucose; [13]): 259.4 (25.2) h·mg/dL
- Average AUEtotal (CV%) Glucose (serum glucose; [14]): 242.8 (41.6) h·mg/dL
- Average AUEtotal (CV%) Glucose (serum glucose; [15]): 209.3 (31.0) h·mg/dL
- Average AUEtotal (CV%) Glucose (serum glucose; [16]): 741.3 (14.1) h·mg/dL
- Average AUEtotal (CV%) Glucose (serum glucose; [17]): 747.3 (6.0) h·mg/dL
- Average AUEtotal (CV%) Glucose (serum glucose; [18]): 747.8 (11.9) h·mg/dL
- Average AUEtotal (CV%) Glucose (serum glucose; [19]): 759.6 (9.1) h·mg/dL
- Average AUEtotal (CV%) Glucose (serum glucose; [20]): 751.4 (12.6) h·mg/dL
- Average AUEtotal (CV%) Glucose (serum glucose; [21]): 727.0 (7.2) h·mg/dL
- Average AUEtotal (CV%) Insulin (whole blood insulin; [10]): 238.3 (15.0) h·μIU/mL
- Average AUEtotal (CV%) Insulin (whole blood insulin; [11]): 315.1 (35.7) h·μIU/mL
- Average AUEtotal (CV%) Insulin (whole blood insulin; [12]): 223.3 (50.8) h·μIU/mL
- Average AUEtotal (CV%) Insulin (whole blood insulin; [13]): 270.9 (36.0) h·μIU/mL
- Average AUEtotal (CV%) Insulin (whole blood insulin; [14]): 410.2 (62.6) h·μIU/mL
- Average AUEtotal (CV%) Insulin (whole blood insulin; [15]): 301.3 (28.6) h·μIU/mL
- Average AUEtotal (CV%) Insulin (whole blood insulin; [16]): 274.9 (14.2) h·μIU/mL
- Average AUEtotal (CV%) Insulin (whole blood insulin; [17]): 360.2 (30.6) h·μIU/mL
- Average AUEtotal (CV%) Insulin (whole blood insulin; [18]): 264.7 (44.0) h·μIU/mL
- Average AUEtotal (CV%) Insulin (whole blood insulin; [19]): 311.3 (32.0) h·μIU/mL
- Average AUEtotal (CV%) Insulin (whole blood insulin; [20]): 460.3 (57.2) h·μIU/mL
- Average AUEtotal (CV%) Insulin (whole blood insulin; [21]): 349.5 (24.7) h·μIU/mL
- Cough, number of cases ([2]; 5 mg (N=8)): 1
- Epigastric discomfort, number of cases ([2]; 5 mg (N=8)): 1
- Eyeball pain, number of cases ([2]; 5 mg (N=8)): 1
- Poor-quality sleep, number of cases ([2]; 5 mg (N=8)): 1
- Rhinorrhea, number of cases ([2]; 5 mg (N=8)): 1
- Sweating, number of cases ([2]; 5 mg (N=8)): 1
- Throat irritation, number of cases ([2]; 5 mg (N=8)): 1
- Vasovagal syncope, number of cases ([2]; 5 mg (N=8)): 1
- Fatigue, number of cases [2, 22]: 1 ^a
- Insomnia, number of cases [2, 22]: 1 ^a
- % of subjects with AEs in a group [2, 23]: 50%
- AEs, number of cases [2, 23]: 10
- Musculoskeletal discomfort, number of cases ([2]; 10 mg (N=8)): 1
- Pharyngitis, number of cases ([2]; 10 mg (N=8)): 1
- Epigastric discomfort, number of cases [2, 24]: 1 ^a
- Sweating, number of cases [2, 24]: 1 ^a
- % of subjects with AEs in a group [2, 25]: 50%
- AEs, number of cases [2, 25]: 5
- Joint pain, number of cases ([2]; 20 mg (N=8)): 1
- Prurigo, number of cases ([2]; 20 mg (N=8)): 1
- Headache, number of cases [2, 26]: 1 ^a
- Increased urinary frequency, number of cases [2, 26]: 1 ^a
- % of subjects with AEs in a group [2, 27]: 37.5%
- AEs, number of cases [2, 27]: 4
- Serious AEs ([2]; 5-20 mg once daily for 10 days): No serious AEs were reported
- Severity of AEs ([2]; 5-20 mg once daily for 10 days): all AEs were mild in severity
- AEs, number of cases in subjects administered evogliptin ([2]; all evogliptin dose groups, 5-20 mg for 10 days): 19 cases
- Subjects with AEs among those administered evogliptin ([2]; all evogliptin dose groups, eleven subjects): 45.8%
- Tolerability of repeated administration ([2]; healthy subjects, 5–20 mg dose range): well tolerated
- potency for DPP-IV compared to human DPP-VIII (human DPP-VIII): 6,000 times
- potency for DPP-IV compared to human DPP-IX (human DPP-IX): 6,000 times
- potency for DPP-IV compared to human DPP-I (human DPP-I): more than 20,000 times
- potency for DPP-IV compared to human DPP-II (human DPP-II): more than 20,000 times
- potency for DPP-IV compared to FAPα [3]: more than 20,000 times
- potency for DPP-IV compared to APP1 [4]: more than 20,000 times
- potency for DPP-IV compared to prolidase (prolidase): more than 20,000 times
- potency for DPP-IV compared to granzyme B (granzyme B): more than 20,000 times
- induction of CYP3A4 [5]: not an inducer
- inhibition of CYP1A2 (CYP1A2): nor an inhibitor
- inhibition of CYP2C9 (CYP2C9): nor an inhibitor
- inhibition of CYP2C19 (CYP2C19): nor an inhibitor
- inhibition of CYP2D6 (CYP2D6): nor an inhibitor
- inhibition of CYP3A4 (CYP3A4 [6]): nor an inhibitor
- enzyme mediating metabolism (CYP3A4 [7]): primarily mediated by CYP3A4
- dose proportionality of PKs after single dose [8]: dose-proportional PKs
- tolerability after single dose [8]: good tolerability
- effect on insulin sensitivity (high fat diet-fed mice): improved insulin sensitivity
- effect on onset of diabetes (db/db mice): delayed the onset of diabetes
- effect on β-cell replication and neogenesis [9]: increased β-cell replication and neogenesis
- interindividual variability (CV%) of AUCτ,ss (5-20 mg): < 20%
- interindividual variability (CV%) of Cmax,ss (5-20 mg): < 30%
- time to attain steady state (all dosage groups, once daily): ≤ 3 days
- fess (fraction of the administered drug excreted into the urine at the steady state) (day 10, 5 mg once daily, mean ± SD): 0.34±0.08
- fess (fraction of the administered drug excreted into the urine at the steady state) (day 10, 10 mg once daily, mean ± SD): 0.27±0.12
- fess (fraction of the administered drug excreted into the urine at the steady state) (day 10, 20 mg once daily, mean ± SD): 0.27±0.04
- CLss/F (day 10, steady state, 5 mg once daily, mean ± SD): 49.4 ± 9.6 L/h
- CLss/F (day 10, steady state, 10 mg once daily, mean ± SD): 63.4 ± 10.7 L/h
- CLss/F (day 10, steady state, 20 mg once daily, mean ± SD): 54.3 ± 8.6 L/h
- Tmax (human, in vivo): 4 to 5 h
- AUC(0-t) (human, in vivo, 5 mg): 73 ± 15.3 ng·h/mL
- Cmax (human, in vivo, 5 mg, Cmax, day 1, 5 mg, mean ± SD): 4.9 ± 1.8 ng/mL
- Cmax (human, in vivo, 5 mg, Cmax,ss, day 10, steady state, 5 mg once daily, mean ± SD): 6.7 ± 1.9 ng/mL
- half-life (human, in vivo, 5 mg, t1/2,ss, day 10, steady state, 5 mg once daily, mean ± SD): 32.9 ± 6.1 h
- AUC(0-t) (human, in vivo, 10 mg): 118 ± 24.2 ng·h/mL
- Cmax (human, in vivo, 10 mg, Cmax, day 1, 10 mg, mean ± SD): 9.5 ± 2.1 ng/mL
- AUC(0-t) (human, in vivo, 20 mg): 254 ± 44 ng·h/mL
- Cmax (human, in vivo, 20 mg, Cmax, day 1, 20 mg, mean ± SD): 21.7 ± 3.7 ng/mL
- Tmax (human, in vivo, po, 5 mg): 5.1 h
- Tmax (human, in vivo, po, 10 mg): 5 h
- Tmax (human, in vivo, po, 20 mg): 4.5 h
- dose linearity of PKs (within the 5–20 mg dose range, repeated administration): linear PKs
